Converted amounts (≈) assume the structure as drawn.
Tested on: HL-60
Test: Cytotoxicity against human HL60 cells
Format: functional, cell-based

## CC(=O)O[C@H]1C[C@H]2[C@@H]3CCC4=CC(=O)CC[C@]4(C)[C@H]3C[C@@H](OC(C)=O)[C@]2(C)[C@H]1[C@@](C)(O)CCCC(C)C [NANJIOL B]
  IC50: 5 µg/mL (≈ 9.68 µM)
